Experimental data from patent publication US7138361B2, “Herbicidal heterocycles” (E. I. du Pont de Nemours and Company, priority 2000, dated 2006).

Tests used:
Type in all cases: in vivo
[1] = tested on: Surinam grass (Brachiaria decumbens); experiment: Test B postemergence; conditions: 13 to 15 days
Excerpt: (§1) Seeds selected from barnyardgrass (Echinochloa crus-galli), Surinam grass (Brachiaria decumbens), cocklebur (Xanthium strumarium), corn (Zea mays), crabgrass (Digitaria sanguinalis), giant foxtail (Setaria faberii), lambsquarters (Chenopodium album), morning glory (Ipomoea hederacea), pigweed (Amaranthus retroflexus), rice (Oryza saliva) and velvetleaf (Abutilon theophrasti) were planted and treated preemergence with test chemicals formulated in a non-phytotoxic solvent mixture which included a surfactant.
(§2) At the same time, plants selected from these crop and weed species and also blackgrass (Alopecurus myosuroides), wheat (Triticum aestivum) and wild oat (Avena fatua) were treated with postemergence applications of test chemicals formulated in the same manner. Plants ranged in height from 2 to 18 cm (1- to 4-leaf stage) for postemergence treatments. Plant species in the flooded paddy test consisted of rice (Oryza saliva), smallflower flatsedge (Cyperus difformis), duck salad (Heteranthera limosa) and barnyardgrass (Echinochloa crus-galli) grown to the 2-leaf stage for testing. Treated plants and controls were maintained in a greenhouse for 13 to 15 days, after which time all species were compared to controls and visually evaluated. Plant response ratings, summarized in Table B, are based on a scale of 0 to 100 where 0 is no effect and 100 is complete control. A dash (-) response means no test result.

[2] = tested on: barnyardgrass (Echinochloa crus-galli); experiment: Test B postemergence; conditions: 13 to 15 days
Excerpt: as §1, §2

[3] = tested on: blackgrass (Alopecurus myosuroides); experiment: Test B postemergence; conditions: 13 to 15 days
Excerpt: as §1, §2

[4] = tested on: cocklebur (Xanthium strumarium); experiment: Test B postemergence; conditions: 13 to 15 days
Excerpt: as §1, §2

corn (Zea mays) [5] = experiment: Test B postemergence; conditions: 13 to 15 days
Excerpt: as §1, §2

[6] = tested on: crabgrass (Digitaria sanguinalis); experiment: Test B postemergence; conditions: 13 to 15 days
Excerpt: as §1, §2

[7] = tested on: giant foxtail (Setaria faberii); experiment: Test B postemergence; conditions: 13 to 15 days
Excerpt: as §1, §2

[8] = tested on: lambsquarters (Chenopodium album); experiment: Test B postemergence; conditions: 13 to 15 days
Excerpt: as §1, §2

[9] = tested on: morning glory (Ipomoea hederacea); experiment: Test B postemergence; conditions: 13 to 15 days
Excerpt: as §1, §2

[10] = tested on: pigweed (Amaranthus retroflexus); experiment: Test B postemergence; conditions: 13 to 15 days
Excerpt: as §1, §2

[11] = tested on: velvetleaf (Abutilon theophrasti); experiment: Test B postemergence; conditions: 13 to 15 days
Excerpt: as §1, §2

[12] = tested on: wheat (Triticum aestivum); experiment: Test B postemergence; conditions: 13 to 15 days
Excerpt: as §1, §2

wild oat (Avena fatua) = experiment: Test B postemergence; conditions: 13 to 15 days
Excerpt: as §1, §2

[13] = tested on: Surinam grass (Brachiaria decumbens); experiment: Test B preemergence
Excerpt: as §1, §2

[14] = tested on: barnyardgrass (Echinochloa crus-galli); experiment: Test B preemergence
Excerpt: as §1, §2

[15] = tested on: cocklebur (Xanthium strumarium); experiment: Test B preemergence
Excerpt: as §1, §2

corn (Zea mays) [16] = experiment: Test B preemergence
Excerpt: as §1, §2

[17] = tested on: crabgrass (Digitaria sanguinalis); experiment: Test B preemergence
Excerpt: as §1, §2

[18] = tested on: giant foxtail (Setaria faberii); experiment: Test B preemergence
Excerpt: as §1, §2

[19] = tested on: lambsquarters (Chenopodium album); experiment: Test B preemergence
Excerpt: as §1, §2

[20] = tested on: morning glory (Ipomoea hederacea); experiment: Test B preemergence
Excerpt: as §1, §2

[21] = tested on: pigweed (Amaranthus retroflexus); experiment: Test B preemergence
Excerpt: as §1, §2

rice (Oryza saliva) [22] = experiment: Test B preemergence
Excerpt: as §1, §2

[23] = tested on: velvetleaf (Abutilon theophrasti); experiment: Test B preemergence
Excerpt: as §1, §2

[24] = tested on: barnyardgrass (Echinochloa crus-galli); experiment: Test C flooded paddy test; conditions: for Barnyardgrass plant response rating: Flooded Paddy, scale 0 to 100, 0 no effect, 100 complete control; for Plant response rating, Barnyardgrass: flooded paddy test, scale 0 to 100 (0 no effect, 100 complete control)
Description: (§3) At the same time, plants selected from these crop and weed species and also winter barley (Hordeum vulgare), blackgrass (Alopecurus myosuroides), canary grass (Phalaris minor), chickweed (Stellaria media), downy brome (Bromus tectorum), green foxtail (Setaria viridis), Italian ryegrass (Lolium multiflorum), wheat (Triticum aestivum), wild oat (Avena fatua) and windgrass (Apera spica-venti) were treated with postemergence applications of some of the test chemicals formulated in the same manner. Plants ranged in height from 2 to 18 cm (1- to 4-leaf stage) for postemergence treatments. Plant species in the flooded paddy test consisted of rice (Oryza saliva), smallflower flatsedge (Cyperus difformis), duck salad (Heteranthera limosa) and barnyardgrass (Echinochloa crus-galli) grown to the 2-leaf stage for testing. Treated plants and controls were maintained in a greenhouse for 12 to 14 days, after which time all species were compared to controls and visually evaluated. Plant response ratings, summarized in Table C, are based on a scale of 0 to 100 where 0 is no effect and 100 is complete control. A dash (-) response means no test result.

[25] = tested on: duck salad (Heteranthera limosa); experiment: Test C flooded paddy test; conditions: for Ducksalad plant response rating: Flooded Paddy, scale 0 to 100, 0 no effect, 100 complete control; for Plant response rating, Ducksalad: flooded paddy test, scale 0 to 100 (0 no effect, 100 complete control)
Description: as §3

rice (Oryza saliva) [26] = experiment: Test C flooded paddy test; conditions: for Rice plant response rating: Flooded Paddy, scale 0 to 100, 0 no effect, 100 complete control; for Plant response rating, Rice: flooded paddy test, scale 0 to 100 (0 no effect, 100 complete control)
Description: as §3

[27] = tested on: smallflower flatsedge (Cyperus difformis); experiment: Test C flooded paddy test; conditions: for Flatsedge plant response rating: Flooded Paddy, scale 0 to 100, 0 no effect, 100 complete control; for Plant response rating, Flatsedge: flooded paddy test, scale 0 to 100 (0 no effect, 100 complete control)
Description: as §3

[28] = Rate 125 g/ha, scale 0 (no effect) to 100 (complete control)
[29] = Rate 500 g/ha, scale 0 to 100, 0 is no effect, 100 is complete control
[30] = Preemergence, Rate 500 g/ha, scale 0 to 100, 0 no effect, 100 complete control
[31] = preemergence, Rate 125 g/ha, scale of 0 to 100 where 0 is no effect and 100 is complete control, 13 to 15 days

SMILES: CC(C)(C)c1ccn(C2CCN(c3cccc(OC(F)(F)C(F)F)c3)C2=O)n1 (stereo not shown) [Compound 48]
- Plant response rating, Surinam grass [1, 28]: 0
- Plant response rating, Surinam grass [1, 29]: 0
- Plant response rating, Barnyardgrass [2, 28]: 0
- Plant response rating, Barnyardgrass [2, 29]: 0
- Plant response rating, Blackgrass [3, 28]: 0
- Plant response rating, Blackgrass [3, 29]: 0
- Plant response rating, Cocklebur [4, 28]: 0
- Plant response rating, Cocklebur [4, 29]: 0
- Plant response rating, Corn (corn (Zea mays) [5]; [28]): 0
- Plant response rating, Corn (corn (Zea mays) [5]; [29]): 0
- Plant response rating, Crabgrass [6, 28]: 0
- Plant response rating, Crabgrass [6, 29]: 0
- Plant response rating, Foxtail, Giant [7, 28]: 0
- Plant response rating, Foxtail, Giant [7, 29]: 0
- Plant response rating, Lambsquarters [8, 28]: 0
- Plant response rating, Lambsquarters [8, 29]: 80
- Plant response rating, Morningglory [9, 28]: 0
- Plant response rating, Morningglory [9, 29]: 0
- Plant response rating, Pigweed [10, 28]: 0
- Plant response rating, Pigweed [10, 29]: 0
- Plant response rating, Velvetleaf [11, 28]: 0
- Plant response rating, Velvetleaf [11, 29]: 0
- Plant response rating, Wheat [12, 28]: 0
- Plant response rating, Wheat [12, 29]: 0
- Plant response rating, Wild Oat (wild oat (Avena fatua); [28]): 0
- Plant response rating, Wild Oat (wild oat (Avena fatua); [29]): 0
- Plant response rating, Surinam grass [13, 30]: 0
- Plant response rating, Surinam grass [13, 31]: 0
- Plant response rating, Barnyardgrass [14, 30]: 0
- Plant response rating, Barnyardgrass [14, 31]: 0
- Plant response rating, Cocklebur [15, 30]: 0
- Plant response rating, Cocklebur [15, 31]: 0
- Plant response rating, Corn (corn (Zea mays) [16]; [30]): 0
- Plant response rating, Corn (corn (Zea mays) [16]; [31]): 0
- Plant response rating, Crabgrass [17, 30]: 80
- Plant response rating, Crabgrass [17, 31]: 0
- Plant response rating, Foxtail, Giant [18, 30]: 0
- Plant response rating, Foxtail, Giant [18, 31]: 0
- Plant response rating, Lambsquarters [19, 30]: 100
- Plant response rating, Lambsquarters [19, 31]: 100
- Plant response rating, Morningglory [20, 30]: 0
- Plant response rating, Morningglory [20, 31]: 0
- Plant response rating, Pigweed [21, 30]: 0
- Plant response rating, Pigweed [21, 31]: 0
- Plant response rating, Rice (rice (Oryza saliva) [22]; [30]): 0
- Plant response rating, Rice (rice (Oryza saliva) [22]; [31]): 0
- Plant response rating, Velvetleaf [23, 30]: 0
- Plant response rating, Velvetleaf [23, 31]: 0
- Barnyardgrass plant response rating ([24]; Rate 250 g/ha): 100
- Barnyardgrass plant response rating ([24]; Rate 500 g/ha): 100
- Plant response rating, Barnyardgrass ([24]; Rate 62 g/ha): 20
- Plant response rating, Barnyardgrass ([24]; Rate 125 g/ha): 40
- Ducksalad plant response rating ([25]; Rate 250 g/ha): 70
- Ducksalad plant response rating ([25]; Rate 500 g/ha): 90
- Plant response rating, Ducksalad ([25]; Rate 62 g/ha): 0
- Plant response rating, Ducksalad ([25]; Rate 125 g/ha): 20
- Rice plant response rating (rice (Oryza saliva) [26]; Rate 250 g/ha): 20
- Rice plant response rating (rice (Oryza saliva) [26]; Rate 500 g/ha): 50
- Plant response rating, Rice (rice (Oryza saliva) [26]; Rate 62 g/ha): 0
- Plant response rating, Rice (rice (Oryza saliva) [26]; Rate 125 g/ha): 0
- Flatsedge plant response rating ([27]; Rate 250 g/ha): 100
- Flatsedge plant response rating ([27]; Rate 500 g/ha): 100
- Plant response rating, Flatsedge ([27]; Rate 62 g/ha): 90
- Plant response rating, Flatsedge ([27]; Rate 125 g/ha): 90
